In US8093273B2, “Flavanoids and isoflavanoids for the prevention and treatment of cardiovascular diseases” (Resverlogix Corp., priority 2004, dated 2012):

Key:
human ApoA-I promoter = assay: ApoA-I promoter induction in Caco-2 intestinal cells (pAI.474-Luc luciferase reporter); type: cell-based; settings: Caco-2 cells, 15 μM, 48 hours incubation, luciferase activity vs control samples
Description: To examine the effects of compounds of the invention to increase ApoA-I expression, Caco-2 cells, an intestinal cell line derived from human epithelial intestinal cells, were grown under conditions recommended by the ATCC and summarized in United States Patent Application Publication No. 20040033480 (“Wong”), incorporated herein by reference.
Briefly, the promoter region of the gene encoding human ApoA-I was isolated and ligated upstream of the firefly luciferase gene to construct the reporter plasmid pAI.474-Luc. This reporter plasmid and pRSV-β-galactosidase (as a control for transfection efficiency) were co-transfected to Caco-2 cells. The Caco-2 cells were then incubated in a MEM selection media containing 20% fetal calf serum supplemented with G418 (final concentration: 0.5 mg/mL, Gibco) to give established strains that stably express from the reporter gene. The strains were seeded in 6-well culture plates and incubated for 48 hours at 37° C. under 5% carbon dioxide. Cells were starved for 24 hrs in MEM selection media containing 0.5% FBS. Then, a solution of a compound of the invention in DMSO or other appropriate solvent was added to the wells at a final concentration of 0 to 100 μM in MEM selection media containing 0.5% FBS.
After further incubation for 48 hours, the cells were harvested and lysed using Reporter Lysis Buffer (PROMEGA E3971), and 50 μL of luciferase assay reagent (PROMEGA E4550 Luciferase Reporter 1000 assay system) was added to measure luciferase activity with a luminometer (Fluoroskan Ascent FL from Thermo electron Corporation). Luciferase activity was normalized to lysate protein concentrations, measured using Bradford Reagent (BioRad Protein Assay reagent Cat #500-0006). The luciferase activity of cells treated with various concentrations of test compounds was compared to that of solvent control sample (i.e., solvent without any compound of the present invention added) and untreated control sample.

Row | Structure (SMILES) | melting point [°C] | ApoA-I Promoter Induction (human ApoA-I promoter)
1 | O=c1cc(-c2ccc(O)cc2[N+](=O)[O-])oc2ccccc12 [Example 10, 2-(4-Hydroxy-2-nitrophenyl)chromen-4-one] | 277 to 279 | 
2 | O=c1cc(-c2ccc(O)cc2F)oc2ccccc12 [Example 15, 2-(2-Fluoro-4-hydroxyphenyl)chromen-4-one] | 287 to 289 | 
3 | O=c1cc(-c2ccc(O)cc2)oc2c([N+](=O)[O-])cccc12 [Example 16, 2-(4-Hydroxyphenyl)-8-nitro-4H-chromen-4-one] | 299 to 301 | 
4 | COc1cccc2c(=O)cc(-c3ccc(O)cc3)oc12 [Example 17, 2-(4-Hydroxyphenyl)-8-methoxy-4H-chromen-4-one] | 281 to 283 | increased
5 | COc1cc(OC)c2c(=O)cc(-c3ccc(O)cc3)oc2c1 [Example 18, 2-(4-Hydroxyphenyl)-5,7-dimethoxy-4H-chromen-4-one] | 301 to 303 | increased
6 | O=c1cc(-c2ccc(O)c(Br)c2)oc2ccccc12 [Example 19, 2-(3-Bromo-4-hydroxyphenyl)-4H-chromen-4-one] | 273.5 to 274.9 | increased
7 | CN(C)Cc1c(-c2ccc(O)cc2)oc2ccccc2c1=O.Cl [Example 20, 3-((Dimethylamino)methyl)-2-(4-hydroxyphenyl)-4H-chromen-4-one hydrochloride] | 271.5 to 272.3 | no increase
8 | N#CCc1c(-c2ccc(O)cc2)oc2ccccc2c1=O [Example 21, 2-(2-(4-Hydroxyphenyl)-4-oxo-4H-chromen-3-yl)acetonitrile] | 258.2 to 259.5 | increased
9 | O=c1c(CO)c(-c2ccc(O)cc2)oc2ccccc12 [Example 22, 3-(Hydroxymethyl)-2-(4-hydroxyphenyl)-4H-chromen-4-one] | 234 to 235 | 
10 | N#Cc1ccc2oc(-c3ccc(O)cc3)cc(=O)c2c1 [Example 23, 2-(4-Hydroxyphenyl)-4-oxo-4H-chromene-6-carbonitrile] | 296 to 298 | 
11 | CC(=O)Oc1ccc(-c2cc(=O)c3cc(Br)cc([N+](=O)[O-])c3o2)cc1F [Example 25, 4-(6-Bromo-8-nitro-4-oxo-4H-chromen-2-yl)-2-fluorophenyl acetate] | 236.2 to 238.5 | increased
12 | COCc1c(-c2ccc(O)cc2)oc2ccccc2c1=O [Example 26, 2-(4-Hydroxyphenyl)-3-(methoxymethyl)-4H-chromen-4-one] | 237 to 239 | increased
13 | CN(C)Cc1ccc2oc(-c3ccc(O)cc3)cc(=O)c2c1 [Example 28, 6-((Dimethylamino)methyl)-2-(4-hydroxyphenyl)-4H-chromen-4-one] | 99 to 102 | 
14 | O=c1cc(-c2ccc(O)cc2)oc2c[n+]([O-])ccc12 [Example 30, 2-(4-Hydroxyphenyl)-4-oxo-4H-pyrano[2,3-c]pyridine 7-oxide] | 307 to 308 | no increase
15 | O=c1cc(-c2ccc(O)cc2)oc2c1ccc[n+]2[O-] [Example 31, 2-(4-Hydroxyphenyl)-4-oxo-4H-pyrano[2,3-b]pyridine 8-oxide] | 314 to 315 | no increase
16 | N#Cc1ccc(-c2cc(=O)c3cccnc3o2)cc1 [Example 40, 4-(4-Oxo-4H-pyrano[2,3-b]pyridine-2-yl)benzonitrile] | 250 to 252 | increased
17 | Cn1c(-c2ccc(O)c(F)c2)cc2ncccc2c1=O [Example 56, 7-(3-Fluoro-4-hydroxyphenyl)-6-methyl-1,6-naphthyridin-5(6H)-one] | 182 to 184 | no increase
18 | CNc1nc(-c2ccc(O)c(F)c2)cc2c(OC)cccc12 [Example 58, 2-Fluoro-4-(5-methoxy-1-(methylamino)isoquinolin-3-yl)phenol] | 185 to 187 | 
19 | COc1cccc2c(=O)[nH]c(-c3ccc(O)c(F)c3)cc12 [Example 59, 3-(3-Fluoro-4-hydroxyphenyl)-5-methoxyisoguinolin-1(2H)-one] | 289 to 291 | increased
20 | O=C1C=C(c2ccc(O)cc2)S(=O)(=O)c2ccccc21 [Example 66, 2-(4-Hydroxy-phenyl)-1,1-dioxo-1H-1λ^6-thiochromen-4-one] | 222 to 224 | 
21 | O=c1nc(-c2ccc(O)cc2)oc2ccccc12 [Example 67, 2-(4-Hydroxyphenyl)benzo[e][1,3]oxazin-4-one] | 273 to 275 | increased
22 | Oc1ccc(-c2ccc3ccccc3c2)nc1 [Example 68, 6-Naphthalen-2-yl-pyridin-3-ol] | 168 to 169 | 
23 | CC(=O)Oc1ccc(C2=CC(C)(C)c3ccccc3O2)cc1 [Example 69, 4-(4,4-Dimethyl-4H-chromen-2-yl)phenyl acetate] | 84 to 86 | increased
24 | Oc1ccc(C2=COc3ccccc3O2)cc1 [Example 70, 4-(Benzo[b][1,4]dioxin-2-yl)phenol] | 137 to 140 | increased
25 | CC(=O)Oc1ccc(-c2cc(=O)c3cccnc3o2)cc1 [Example 75, 4-(4-Oxo-4H-pyrano[2,3-b]pyridine-2-yl)phenyl acetate] | 167 to 169 | increased
26 | CC(=O)Oc1ccc(C2=COc3ccccc3O2)cc1 [Example 77, 4-(Benzo[b][1,4]dioxin-2-yl)phenyl acetate] | 123 to 125 | increased
27 | O=c1cc(-c2ccc([N+](=O)[O-])cc2)oc2ncccc12 [Example 80, 2-(4-Nitrophenyl)-4H-pyrano[2,3-b]pyridine-4-one] | 261 to 263 | no increase
28 | O=c1c(-c2ccc(O)cc2)coc2ccccc12 [Example 84, 3-(4-Hydroxyphenyl)-4H-chromen-4-one] | 237 to 238 | increased
29 | O=c1c(-c2ccc(O)cc2)coc2ncccc12 [Example 85, 3-(4-Hydroxyphenyl)-4H-pyrano[2,3-b]pyridine-4-one] | 262 to 264 | increased
